Experiments:
[1] = about 5% to about 95% relative humidity at 25° C. over a period of 3 months
[2] = interconversion experiments of the polymorphs; settings: for stability class of the polymorph: conclusion from interconversion experiments
[3] = drying under vacuum at ambient temperature or at 60° C.

Row | SMILES | stability class of the polymorph [2] | polymorphic conversion in interconversion experiments [2] | polymorph produced on drying [3] | other results
1 | Cc1c(Cl)c(C)[n+]([O-])c(Cl)c1-c1noc(-c2cc(O)c(O)c([N+](=O)[O-])c2)n1 [polymorph A, 5-[3-(2,5-dichloro-4,6-dimethyl-1-oxy-pyridin-3-yl)-[1,2,4]oxadiazol-5-yl]-3-nitrobenzene-1,2-diol] | thermodynamically stable polymorph |  |  | hygroscopicity [1]: non-hygroscopic
2 | Cc1c(Cl)c(C)[n+]([O-])c(Cl)c1-c1noc(-c2cc(O)c(O)c([N+](=O)[O-])c2)n1 [polymorph E, 5-[3-(2,5-dichloro-4,6-dimethyl-1-oxy-pyridin-3-yl)-[1,2,4]oxadiazol-5-yl]-3-nitrobenzene-1,2-diol] |  | convert into polymorph A or B | produced polymorph A | 
3 | Cc1c(Cl)c(C)[n+]([O-])c(Cl)c1-c1noc(-c2cc(O)c(O)c([N+](=O)[O-])c2)n1 [polymorph D, 5-[3-(2,5-dichloro-4,6-dimethyl-1-oxy-pyridin-3-yl)-[1,2,4]oxadiazol-5-yl]-3-nitrobenzene-1,2-diol] |  | convert into polymorph A or B |  | 
4 | Cc1c(Cl)c(C)[n+]([O-])c(Cl)c1-c1noc(-c2cc(O)c(O)c([N+](=O)[O-])c2)n1 [polymorph F, 5-[3-(2,5-dichloro-4,6-dimethyl-1-oxy-pyridin-3-yl)-[1,2,4]oxadiazol-5-yl]-3-nitrobenzene-1,2-diol] |  | convert into polymorph A or B |  | 
5 | Cc1c(Cl)c(C)[n+]([O-])c(Cl)c1-c1noc(-c2cc(O)c(O)c([N+](=O)[O-])c2)n1 [polymorph B, 5-[3-(2,5-dichloro-4,6-dimethyl-1-oxy-pyridin-3-yl)-[1,2,4]oxadiazol-5-yl]-3-nitrobenzene-1,2-diol] | kinetically stable polymorphs |  |  | polymorphic conversion when slurried in water ([2]; slurried in water containing crystal seeds of modification A over prolonged periods of time): converts into polymorph A
6 | Cc1c(Cl)c(C)[n+]([O-])c(Cl)c1-c1noc(-c2cc(O)c(O)c([N+](=O)[O-])c2)n1 [polymorph C, 5-[3-(2,5-dichloro-4,6-dimethyl-1-oxy-pyridin-3-yl)-[1,2,4]oxadiazol-5-yl]-3-nitrobenzene-1,2-diol] |  | convert into polymorph A or B | produced polymorph B | 
